In PubChem BioAssay AID623924 (Vanderbilt Specialized Chemistry Center, 2012):
The source made the active and inactive calls.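 Rule for the calls: active = response changes with concentration, giving a dose-dependent curve as judged by the depositor; inactive = the rest, with no dose-dependent response.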

Biological target: Muscarinic acetylcholine receptor M1 (Homo sapiens) (UniProt P11229)
Assay: potentiation of ACh response at hM1 – CHO-K1 cells, calcium fluorescence, selectivity assay for M4 PAM optimization, SAR follow-up (AID 623924)
Conditions: ACh EC20 potentiation; for % ACh max response: at 30 µM (top of the series)

Muscarinic acetylcholine receptor M1 (Homo sapiens), sequence (P11229 whole entry, looked up): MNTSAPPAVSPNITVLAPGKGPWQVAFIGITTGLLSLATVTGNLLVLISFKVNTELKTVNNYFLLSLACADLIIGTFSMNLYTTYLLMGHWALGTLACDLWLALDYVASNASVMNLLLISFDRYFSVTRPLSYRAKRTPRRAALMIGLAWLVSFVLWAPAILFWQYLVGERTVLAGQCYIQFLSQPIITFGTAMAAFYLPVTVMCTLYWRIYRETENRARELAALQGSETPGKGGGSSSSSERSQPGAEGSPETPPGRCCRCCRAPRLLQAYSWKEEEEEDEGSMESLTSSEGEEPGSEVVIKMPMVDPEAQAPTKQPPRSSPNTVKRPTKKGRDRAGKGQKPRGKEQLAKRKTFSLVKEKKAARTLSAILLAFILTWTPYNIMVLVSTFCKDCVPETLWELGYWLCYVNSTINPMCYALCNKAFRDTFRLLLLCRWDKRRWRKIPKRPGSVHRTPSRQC

SMILES | outcome | % ACh max response | also measured
Cc1nc2sc(C(=O)NCc3cccnc3)c(N)c2c(C)c1Cl | inactive |  | 
Cc1nc2sc(C(=O)NC3CC3)c(N)c2c(C)c1Cl |  |  | EC50: 969 nM
Cc1nc2sc(C(=O)NCc3cccc(F)c3F)c(N)c2c(C)c1Cl |  | inactive | 
Cc1nc2sc(C(=O)NCc3ccncn3)c(N)c2c(C)c1Cl |  | inactive | 
COc1ccc(C)c2sc(NC(=O)c3ccncc3)nc12 |  | inactive | 

The next lines start with results.

outcome | % ACh max response | SMILES | also measured
inactive |  | Cc1nc2sc(C(=O)NCc3ccccc3)c(N)c2c(C)c1Cl | 
 | inactive | Cc1nc2sc(C(=O)NCCc3ccncc3)c(N)c2c(C)c1Cl | 
 | inactive | Cc1nc2sc(C(=O)NCc3nccs3)c(N)c2c(C)c1Cl | 
inactive |  | Cc1nc2sc(C(=O)NCc3ccncc3)c(N)c2c(C)c1Cl | 
inactive |  | Cc1nc2sc(C(=O)NCc3ccc4c(c3)OCO4)c(N)c2c(C)c1Cl | 
